US20250011288A1 (BRISTOL-MYERS SQUIBB COMPANY, priority 2021, published 2025)

Target: T1, human RXFP1 (Homo sapiens, UniProt Q9HBX9)
T1 construct: expressed in transfected cells
T1 sequence (Q9HBX9 1-757): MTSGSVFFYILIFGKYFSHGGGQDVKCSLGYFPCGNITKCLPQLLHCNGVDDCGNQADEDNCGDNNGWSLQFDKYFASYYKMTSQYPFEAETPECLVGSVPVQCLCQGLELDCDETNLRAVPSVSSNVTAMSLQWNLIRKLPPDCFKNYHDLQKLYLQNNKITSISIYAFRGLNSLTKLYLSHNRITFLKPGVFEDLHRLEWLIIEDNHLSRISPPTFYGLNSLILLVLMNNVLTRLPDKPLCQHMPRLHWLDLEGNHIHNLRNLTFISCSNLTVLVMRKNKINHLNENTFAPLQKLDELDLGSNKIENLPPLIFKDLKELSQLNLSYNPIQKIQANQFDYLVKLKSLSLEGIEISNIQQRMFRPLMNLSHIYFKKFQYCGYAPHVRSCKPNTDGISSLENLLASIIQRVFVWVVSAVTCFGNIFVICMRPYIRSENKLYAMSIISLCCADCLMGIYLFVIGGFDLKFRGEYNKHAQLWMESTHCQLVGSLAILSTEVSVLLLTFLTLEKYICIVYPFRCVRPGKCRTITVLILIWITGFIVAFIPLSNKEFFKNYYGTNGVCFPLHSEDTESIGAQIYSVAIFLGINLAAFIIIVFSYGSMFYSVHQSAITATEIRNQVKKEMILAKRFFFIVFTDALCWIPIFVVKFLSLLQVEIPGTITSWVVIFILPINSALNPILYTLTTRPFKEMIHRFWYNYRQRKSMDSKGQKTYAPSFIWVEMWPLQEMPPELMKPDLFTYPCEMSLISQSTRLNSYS
Experiment: human RXFP1 (hRXFP1) HEK293 cAMP assay (HTRF)
Format: cell-based
Conditions: HEK293 cells stably expressing human RXFP1, 30 min at room temperature
Method in brief: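 HEK293 cells stably expressing human RXFP1 (1500 cells/well) in HBSS/20 mM HEPES/0.05% BSA/0.5 mM IBMX, treated with compound (0.010 nM–50 µM final, 2% DMSO) for 30 min at room temperature. Intracellular cAMP read by HTRF; potency from 4-parameter logistic fit of cAMP versus concentration.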

**Q.** How did the EC50 turn out when `COc1ncc(C2=NO[C@H]3C[C@H](CO)CN23)cc1C(=O)N[C@@H]1C2CCC(/C2=C/C2CC2)[C@@H]1C(=O)N[C@H](C)C1(C)CC1` (stereo partly drawn) [Example 107, N-((1R,2R,3S, 4R,Z)-7-(cyclopropyl-methylene)-3-(((R)-1-(1-methylcyclopropyl)ethyl)carbamoyl)bicyclo[2.2.1]heptan-2-yl)-5-((6S,7aS)-6-(hydroxymethyl)-5,6,7,7a-tetrahydropyrrolo [1,2-d][1,2,4]oxadiazo 1-3-yl)-2-methoxynicotinamide] was run?
**A.** 2.6 nM

**Q.** Which EC50 does the source give for `O=C(Nc1ccccc1)O[C@@H](c1ccc(F)c(-c2cnc(OCCO)c(C(=O)N[C@H]3[C@@H](C(=O)Nc4ccc(F)c(C(F)(F)F)c4)[C@H]4CC[C@@H]3/C4=C\C(F)(F)F)c2)c1)C(F)(F)F` [Example 42, (S)-2,2,2-trifluoro-1-(4-fluoro-3-(5-(((1R,2R,3S,4R,Z)-3-((4-fluoro-3-(trifluoromethyl)phenyl)carbamoyl)-7-(2,2,2-trifluoroethylidene)bicyclo[2.2.1]heptan-2-yl)carbamoyl)-6-(2-hydroxyethoxy)pyridin-3-yl)phenyl)ethyl phenylcarbamate] here?
**A.** 8.1 nM

**Q.** How did the EC50 turn out when `COc1cc2c(cc1C(=O)N[C@@H]1C3CCC(/C3=C/C3CC3)[C@@H]1C(=O)Nc1ccc(F)c(C(F)(F)F)c1)CCN(S(C)(=O)=O)C2` (stereo partly drawn) [Example 93] was run?
**A.** 1700 nM

**Q.** How did the EC50 turn out when `COc1ncc(COC2(CO)CC2)cc1C(=O)N[C@H]1[C@@H](C(=O)Nc2ccc(F)c(C(F)(F)F)c2)[C@H]2CC[C@@H]1/C2=C\C1CC1` [Example 73, N-[(1R,2R,3S, 4R,7Z)-7-(cyclopropyl-methylidene)-3-{[4-fluoro-3-(trifluoromethyl)phenyl]carbamoyl}bicyclo[2.2.1]heptan-2-yl]-5-{[1-(hydroxymethyl)cyclopropoxy]methyl}-2-methoxypyridine-3-carboxamide] was run?
**A.** 24 nM

**Q.** `COc1ncc(C2=NOC3COCC23)cc1C(=O)N[C@H]1[C@@H](C(=O)N[C@H](C)C2(C)CC2)[C@H]2CC[C@@H]1/C2=C\c1csc(C(F)(F)F)n1` (stereo partly drawn) [Example 119, 2-methoxy-N-((1R,2R,3S,4R,Z)-3-(((R)-1-(1-methylcyclopropyl)ethyl)carbamoyl)-7-((2-(trifluoromethyl)thiazol-4-yl)methylene)bicyclo[2.2.1]heptan-2-yl)-5-(3a,4,6,6a-tetrahydrofuro[3,4-d]isoxazol-3-yl)nicotinamide] was tested. Which EC50 did it give?
**A.** 3.9 nM

**Q.** With `CC1(C)Cc2cc(C3=NOC4COCC34)cc(C(=O)N[C@@H]3C4CCC(/C4=C/C4CC4)[C@@H]3C(=O)Nc3ccc(F)c(C(F)(F)F)c3)c2O1` (stereo partly drawn) [Example 145, 5-{3aH,4H,6H,6aH-furo[3,4-d][1,2]oxazol-3-yl}-N-[(1R,2R,3S, 4R,7Z,)-7-(cyclopropyl-methylidene)-3-{[4-fluoro-3-(trifluoromethyl)phenyl]carbamoyl}bicyclo[2.2.1]heptan-2-yl]-2,2-dimethyl-2,3-dihydro-1-benzofuran-7-carboxamide] as the molecule, how does the EC50 read?
**A.** 3 nM

**Q.** `COc1ncc(-c2cnc3n2CC(O)CC3)cc1C(=O)N[C@H]1[C@@H](C(=O)Nc2ccc(F)c(C(F)(F)F)c2)[C@H]2CC[C@@H]1/C2=C\C1CC1` (stereo partly drawn) [Example 104, N-((1R,2R,3S,4R,Z)-7-(cyclopropyl-methylene)-3-((4-fluoro-3-(trifluoromethyl)phenyl)carbamoyl)bicyclo[2.2.1]heptan-2-yl)-5-(6-hydroxy-5,6,7,8-tetrahydroimidazo[1,2-a]pyridin-3-yl)-2-methoxynicotinamide] was tested. Which EC50 did it give?
**A.** 4 nM

**Q.** For `COc1ncc(-c2cc([C@H](OC(=O)NC3CC3)C(F)(F)F)ccc2F)cc1C(=O)N[C@H]1[C@@H](C(=O)Nc2ccc(F)c(C(F)(F)F)c2)[C@H]2CC[C@@H]1/C2=C\C1CC(F)(F)C1` [Example 167, (1S)-1-[3-(5-{[(1R,2R,3S,4R, 7Z)-7-[(3,3-difluorocyclobutyl)methylidene]-3-{[4-fluoro-3-(trifluoromethyl)phenyl]carbamoyl}bicyclo[2.2.1]heptan-2-yl]carbamoyl}-6-methoxypyridin-3-yl)-4-fluorophenyl]-2,2,2-trifluoroethyl N-cyclopropyl-carbamate], which EC50 is on record?
**A.** 1.7 nM

**Q.** With `COc1ncc(-c2ccc(C(=O)O)cc2)cc1C(=O)N[C@@H]1C2CCC(C2=C(C)C)[C@@H]1C(=O)Nc1ccc(F)c(C(F)(F)F)c1` (stereo partly drawn) [Example 20, 4-(5-{[(2R,3S)-3-{[4-fluoro-3-(trifluoromethyl)phenyl]carbamoyl}-7-(propan-2-ylidene)bicyclo[2.2.1]heptan-2-yl]carbamoyl}-6-methoxypyridin-3-yl)benzoic acid] as the molecule, how does the EC50 read?
**A.** 250 nM

**Q.** For `COc1cc2c(cc1C(=O)N[C@H]1[C@@H](C(=O)Nc3ccc(F)c(C(F)(F)F)c3)[C@H]3CC[C@@H]1/C3=C\C1CC1)CN(S(=O)(=O)CC(C)C)CC2` [Example 88, N-((1R,2R,3S,4R,Z)-7-(cyclopropylmethylene)-3-((4-fluoro-3-(trifluoromethyl)phenyl)carbamoyl)bicyclo[2.2.1]heptan-2-yl)-2-(isobutylsulfonyl)-6-methoxy-1,2,3,4-tetrahydroisoquinoline-7-carboxamide], which EC50 is on record?
**A.** 110 nM

**Q.** Which EC50 does the source give for `COc1nccnc1C(=O)N[C@@H]1C2CCC(C2=C(C)C)[C@@H]1C(=O)Nc1ccc(F)c(C(F)(F)F)c1` (stereo partly drawn) [Example 7, N-[(2R,3S)-3-{[4-fluoro-3-(trifluoromethyl)phenyl]carbamoyl}-7-(propan-2-ylidene)bicyclo [2.2.1]heptan-2-yl]-3-methoxypyrazine-2-carboxamide] here?
**A.** 1200 nM

**Q.** With `Cc1nc(O)c(C(=O)N[C@H]2[C@@H](C(=O)Nc3ccc(F)c(C(F)(F)F)c3)[C@H]3CC[C@@H]2/C3=C\C(F)(F)F)cc1-c1cccc(C(=O)O)c1` [Example 56, 3-(5-(((1R,2R,3S,4R,Z)-3-((4-fluoro-3-(trifluoromethyl)phenyl)carbamoyl)-7-(2,2,2-trifluoroethylidene)bicyclo[2.2.1]heptan-2-yl)carbamoyl)-6-hydroxy-2-methylpyridin-3-yl)benzoic acid] as the molecule, how does the EC50 read?
**A.** 2800 nM

**Q.** `COc1ncc(-c2cc([C@H](O)C(F)(F)F)ccc2F)cc1C(=O)N[C@H]1[C@@H](C(=O)Nc2ccc(F)c(C(F)(F)F)c2)[C@H]2CC[C@@H]1/C2=C\C1CCCC1` [Example 163, N-[(1R,2R,3S,4R, 7Z)-7-(cyclopentyl-methylidene)-3-{[4-fluoro-3-(trifluoromethyl)phenyl]carbamoyl}bicyclo[2.2.1]heptan-2-yl]-5-{2-fluoro-5-[(1S)-2,2,2-trifluoro-1-hydroxyethyl]phenyl}-2-methoxypyridine-3-carboxamide] was tested. Which EC50 did it give?
**A.** 1 nM

**Q.** Which EC50 does the source give for `COc1ccc(-c2cc(C(=O)O)ccc2F)nc1C(=O)N[C@@H]1C2CCC(C2=C(C)C)[C@@H]1C(=O)Nc1ccc(F)c(C(F)(F)F)c1` (stereo partly drawn) [Example 23, 4-Fluoro-3-(6-{[(2R,3S)-3-{[4-fluoro-3-(trifluoromethyl)phenyl]carbamoyl}-7-(propan-2-ylidene)bicyclo [2.2.1]heptan-2-yl]carbamoyl}-5-methoxypyridin-2-yl)benzoic acid] here?
**A.** 2400 nM

**Q.** With `O=C(O)c1ccc(F)c(-c2cnc(OCCO)c(C(=O)N[C@H]3[C@@H](C(=O)Nc4ccc(F)c(C(F)(F)F)c4)[C@H]4CC[C@@H]3/C4=C\C(F)(F)F)c2)c1` [Example 40, 4-fluoro-3-(5-(((1R,2R,3S,4R,Z)-3-((4-fluoro-3-(trifluoromethyl)phenyl)carbamoyl)-7-(2,2,2-trifluoroethylidene)bicyclo[2.2.1]heptan-2-yl)carbamoyl)-6-(2-hydroxyethoxy)pyridin-3-yl)benzoic acid] as the molecule, how does the EC50 read?
**A.** 39 nM

**Q.** For `COc1ncc(C2=NOC3CC(CO)CC23)cc1C(=O)N[C@@H]1C2CCC(/C2=C/C2CC2)[C@@H]1C(=O)Nc1ccc(F)c(C(F)(F)F)c1` (single isomer, unassigned) [Example 68], which EC50 is on record?
**A.** 130 nM

**Q.** Which EC50 does the source give for `CC(O)C1CC2ON=C(c3cc4c(c(C(=O)N[C@H]5[C@@H](C(=O)N[C@H](C)C6(C)CC6)[C@H]6CC[C@@H]5/C6=C\C5CC5)c3)OC(C)(C)C4)C2C1` (stereo partly drawn) [Example 176, N-[(1R,2R,3S,4R, 7Z)-7-(cyclopropyl-methylidene)-3-{[(1R)-1-(1-methylcyclopropyl)ethyl]carbamoyl}bicyclo[2.2.1]heptan-2-yl]-5-[5-(1-hydroxyethyl)-3aH,4H,5H,6H, 6aH-cyclopenta[d][1,2]oxazol-3-yl]-2,2-dimethyl-2,3-dihydro-1-benzofuran-7-carboxamide] here?
**A.** 6 nM

**Q.** `COc1cc2c(cc1C(=O)N[C@H]1[C@@H](C(=O)Nc3ccc(F)c(C(F)(F)F)c3)[C@H]3CC[C@@H]1/C3=C\C1CC1)CN(CC(C)(C)O)CC2` [Example 85, N-((1R,2R,3S,4R,Z)-7-(cyclopropylmethylene)-3-((4-fluoro-3-(trifluoromethyl)phenyl)carbamoyl)bicyclo[2.2.1]heptan-2-yl)-2-(2-hydroxy-2-methylpropyl)-6-methoxy-1,2,3,4-tetrahydroisoquinoline-7-carboxamide] was tested. Which EC50 did it give?
**A.** 200 nM
